Results taken from patent publication US9718774B2, “Indole carboxamide derivatives as P2X7 receptor antagonist” (ACTELION PHARMACEUTICALS LTD, priority 2012, dated 2017).

Each molecule was assayed against T1, human recombinant P2X7 receptor (Homo sapiens, UniProt Q99572) (assay: YO-PRO assay: P2X7 receptor antagonistic activity in HEK cells stably expressing P2X7). Details: antagonistic activity with respect to the P2X7 receptor, read-out: IC50.
T1 construct: expressed in transfected cells
T1 sequence (Q99572 1-595): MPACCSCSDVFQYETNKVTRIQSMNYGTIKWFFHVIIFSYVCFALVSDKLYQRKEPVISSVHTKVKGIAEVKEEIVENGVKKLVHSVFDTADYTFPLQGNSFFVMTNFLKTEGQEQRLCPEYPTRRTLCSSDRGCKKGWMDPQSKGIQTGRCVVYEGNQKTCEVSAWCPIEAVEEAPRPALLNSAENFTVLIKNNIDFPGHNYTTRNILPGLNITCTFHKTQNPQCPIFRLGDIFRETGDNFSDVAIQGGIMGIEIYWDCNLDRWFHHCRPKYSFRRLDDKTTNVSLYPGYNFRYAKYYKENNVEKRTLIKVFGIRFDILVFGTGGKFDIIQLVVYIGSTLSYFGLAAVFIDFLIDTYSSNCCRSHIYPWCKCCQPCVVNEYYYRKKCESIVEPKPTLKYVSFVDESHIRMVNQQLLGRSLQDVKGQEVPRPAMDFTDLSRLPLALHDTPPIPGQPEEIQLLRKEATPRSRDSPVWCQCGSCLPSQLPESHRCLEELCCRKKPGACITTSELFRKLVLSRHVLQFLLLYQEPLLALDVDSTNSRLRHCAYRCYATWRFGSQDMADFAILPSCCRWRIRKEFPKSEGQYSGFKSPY
Format: cell-based
Summary of the method: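 HEK cells stably transfected with human P2X7 (cloned from blood cDNA) were loaded with 0.5 μM YO-PRO-1. They were exposed to antagonist (10 concentrations, top 10 μM, 1/3 steps, duplicate) together with 250 μM ATP for 90 min, and dye uptake was read by FLIPR at ex 485/em 530. IC50 from maximum fluorescence versus concentration.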

Row | Compound | IC50 [nM]
1 | Cc1ncc(C(CNC(=O)c2ccc3[nH]ccc3c2Cl)N(C)CC(C)C)cn1 (racemic) [Example 86, rac-4-Chloro-1H-indole-5-carboxylic acid [2-(isobutyl-methyl-amino)-2-(2-methyl-pyrimidin-5-yl)-ethyl]-amide] | 280
2 | Cc1ncc(C(CNC(=O)c2ccc3[nH]ccc3c2Cl)N2CCC(C(=O)OC(C)(C)C)CC2)cn1 (racemic) [Example 75, rac-1-[2-[(4-Chloro-1H-indole-5-carbonyl)-amino]-1-(2-methyl-pyrimidin-5-yl)-ethyl]-piperidine-4-carboxylic acid tert-butyl ester] | 258
3 | CCN(CC)C(CNC(=O)c1ccc2[nH]ccc2c1Cl)c1cnc(C)nc1 (racemic) [Example 15, rac-4-Chloro-1H-indole-5-carboxylic acid [2-diethylamino-2-(2-methyl-pyrimidin-5-yl)-ethyl]-amide] | 85
4 | Cc1ncc(C(CNC(=O)c2ccc3[nH]ccc3c2Cl)N2CCCCCC2)cn1 (racemic) [Example 80, rac-4-Chloro-1H-indole-5-carboxylic acid [2-azepan-1-yl-2-(2-methyl-pyrimidin-5-yl)-ethyl]-amide] | 25
5 | Cc1ncc(C(CNC(=O)c2cc(C(C)(C)O)c3[nH]ccc3c2Cl)N2CCOCC2)cn1 (racemic) [Example 116, rac-4-Chloro-7-(1-hydroxy-1-methyl-ethyl)-1H-indole-5-carboxylic acid [2-(2-methyl-pyrimidin-5-yl)-2-morpholin-4-yl-ethyl]-amide] | 149
6 | Cc1ncc(C(CNC(=O)c2ccc3[nH]ccc3c2Cl)NCC(C)C)cn1 (racemic) [Example 85, rac-4-Chloro-1H-indole-5-carboxylic acid [2-isobutylamino-2-(2-methyl-pyrimidin-5-yl)-ethyl]-amide] | 303
7 | Cc1ncc(C(CNC(=O)c2ccc3[nH]ccc3c2Cl)N2CC(C)OC(C)C2)cn1 (single isomer, unassigned) [Example 42, 4-Chloro-1H-indole-5-carboxylic acid [2-(2,6-dimethyl-morpholin-4-yl)-2-(2-methyl-pyrimidin-5-yl)-ethyl]-amide] | 36
8 | O=C(NCC(c1cncs1)N1CCOCC1)c1ccc2[nH]ccc2c1Cl (racemic) [Example 64, rac-4-Chloro-1H-indole-5-carboxylic acid (2-morpholin-4-yl-2-thiazol-5-yl-ethyl)-amide] | 53

Now those with a lower IC50, led by results:

Row | IC50 [nM] | Compound
9 | 10 | Cc1ncc(C(CNC(=O)c2cc(C)c3[nH]ccc3c2Cl)N2CCOCC2)cn1 (single isomer, unassigned) [Example 97, 4-Chloro-7-methyl-1H-indole-5-carboxylic acid [2-(2-methyl-pyrimidin-5-yl)-2-morpholin-4-yl-ethyl]-amide]
10 | 8.7 | O=C(NCC(c1cncnc1)N1CCCCC1)c1ccc2[nH]ccc2c1Cl (racemic) [Example 27, rac-4-Chloro-1H-indole-5-carboxylic acid (2-piperidin-1-yl-2-pyrimidin-5-yl-ethyl)-amide]
11 | 13 | O=C(NCC(c1ccc(F)c(F)c1)N1CCOCC1)c1ccc2[nH]ccc2c1Cl (racemic) [Example 50, rac-4-Chloro-1H-indole-5-carboxylic acid [2-(3,4-difluoro-phenyl)-2-morpholin-4-yl-ethyl]-amide]
12 | 12 | Cc1ncc(C(CNC(=O)c2ccc3[nH]ccc3c2Cl)C2CCC(F)(F)CC2)cn1 (racemic) [Example 93, rac-4-Chloro-1H-indole-5-carboxylic acid [2-(4,4-difluoro-cyclohexyl)-2-(2-methyl-pyrimidin-5-yl)-ethyl]-amide]
13 | 5.1 | O=C(NCC(c1ccc(C(F)(F)F)nc1)N1CCOCC1)c1ccc2[nH]ccc2c1Cl (racemic) [Example 10, rac-4-Chloro-1H-indole-5-carboxylic acid [2-morpholin-4-yl-2-(6-trifluoromethyl-pyridin-3-yl)-ethyl]-amide]
14 | 16 | Cc1ncc(C(CNC(=O)c2ccc3[nH]ccc3c2Cl)C2CCOCC2)cn1 (racemic) [Example 51, rac-4-Chloro-1H-indole-5-carboxylic acid [2-(2-methyl-pyrimidin-5-yl)-2-(tetrahydro-pyran-4-yl)-ethyl]-amide]
15 | 11 | Cc1ncc(C(CNC(=O)c2cc(Cl)c3[nH]ccc3c2C)N2CCOCC2)cn1 (racemic) [Example 108, rac-7-Chloro-4-methyl-1H-indole-5-carboxylic acid [2-(2-methyl-pyrimidin-5-yl)-2-morpholin-4-yl-ethyl]-amide]
16 | 10 | O=C(NCC(c1cncnc1)N1CCOCC1)c1ccc2[nH]ccc2c1Cl (racemic) [Example 26, rac-4-Chloro-1H-indole-5-carboxylic acid (2-morpholin-4-yl-2-pyrimidin-5-yl-ethyl)-amide]
